From BindingDB's records for patent WO2025049746 (Eikon Therapeutics, 2025) come the findings set out here.

Structures are written as SMILES.

Assay [1] has as its target T1, Bifunctional 3'-5' exonuclease/ATP-dependent helicase WRN [480-1251] (UniProt Q14191).
T1 construct: 480-1251
The assay is described as follows: Biochemical Activity Assays.

Assay [2] deals with Bifunctional 3'-5' exonuclease/ATP-dependent helicase WRN (Homo sapiens, UniProt Q14191). The assay is described as follows: ADP-Glo Kinase Assay. The procedure: ATPase activity was measured using the ADP-Glo Kinase Assay following the manufacturers recommended protocol.
Background: In ADP-Glo the light output rises with the ADP produced.

T1 sequence (Q14191 480-1251): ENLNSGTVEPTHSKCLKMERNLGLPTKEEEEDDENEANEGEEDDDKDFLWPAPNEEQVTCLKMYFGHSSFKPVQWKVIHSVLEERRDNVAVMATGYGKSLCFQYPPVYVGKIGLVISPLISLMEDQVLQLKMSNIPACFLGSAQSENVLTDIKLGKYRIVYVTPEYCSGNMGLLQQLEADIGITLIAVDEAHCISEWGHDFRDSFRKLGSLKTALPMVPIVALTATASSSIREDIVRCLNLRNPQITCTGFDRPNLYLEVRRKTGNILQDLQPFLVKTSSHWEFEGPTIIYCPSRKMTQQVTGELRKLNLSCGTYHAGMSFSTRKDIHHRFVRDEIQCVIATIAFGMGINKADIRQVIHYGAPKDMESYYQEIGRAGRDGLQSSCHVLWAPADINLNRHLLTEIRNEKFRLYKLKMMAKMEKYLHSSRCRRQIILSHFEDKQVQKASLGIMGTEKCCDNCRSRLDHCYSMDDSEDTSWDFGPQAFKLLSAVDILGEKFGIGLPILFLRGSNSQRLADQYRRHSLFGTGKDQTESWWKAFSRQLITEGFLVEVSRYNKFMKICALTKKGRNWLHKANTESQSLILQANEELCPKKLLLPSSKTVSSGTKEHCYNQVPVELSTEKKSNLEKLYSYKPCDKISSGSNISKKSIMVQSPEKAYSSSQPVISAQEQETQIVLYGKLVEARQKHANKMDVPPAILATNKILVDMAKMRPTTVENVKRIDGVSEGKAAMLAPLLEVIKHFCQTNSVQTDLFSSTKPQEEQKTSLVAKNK
Chain of Bifunctional 3'-5' exonuclease/ATP-dependent helicase WRN (Q14191 whole entry): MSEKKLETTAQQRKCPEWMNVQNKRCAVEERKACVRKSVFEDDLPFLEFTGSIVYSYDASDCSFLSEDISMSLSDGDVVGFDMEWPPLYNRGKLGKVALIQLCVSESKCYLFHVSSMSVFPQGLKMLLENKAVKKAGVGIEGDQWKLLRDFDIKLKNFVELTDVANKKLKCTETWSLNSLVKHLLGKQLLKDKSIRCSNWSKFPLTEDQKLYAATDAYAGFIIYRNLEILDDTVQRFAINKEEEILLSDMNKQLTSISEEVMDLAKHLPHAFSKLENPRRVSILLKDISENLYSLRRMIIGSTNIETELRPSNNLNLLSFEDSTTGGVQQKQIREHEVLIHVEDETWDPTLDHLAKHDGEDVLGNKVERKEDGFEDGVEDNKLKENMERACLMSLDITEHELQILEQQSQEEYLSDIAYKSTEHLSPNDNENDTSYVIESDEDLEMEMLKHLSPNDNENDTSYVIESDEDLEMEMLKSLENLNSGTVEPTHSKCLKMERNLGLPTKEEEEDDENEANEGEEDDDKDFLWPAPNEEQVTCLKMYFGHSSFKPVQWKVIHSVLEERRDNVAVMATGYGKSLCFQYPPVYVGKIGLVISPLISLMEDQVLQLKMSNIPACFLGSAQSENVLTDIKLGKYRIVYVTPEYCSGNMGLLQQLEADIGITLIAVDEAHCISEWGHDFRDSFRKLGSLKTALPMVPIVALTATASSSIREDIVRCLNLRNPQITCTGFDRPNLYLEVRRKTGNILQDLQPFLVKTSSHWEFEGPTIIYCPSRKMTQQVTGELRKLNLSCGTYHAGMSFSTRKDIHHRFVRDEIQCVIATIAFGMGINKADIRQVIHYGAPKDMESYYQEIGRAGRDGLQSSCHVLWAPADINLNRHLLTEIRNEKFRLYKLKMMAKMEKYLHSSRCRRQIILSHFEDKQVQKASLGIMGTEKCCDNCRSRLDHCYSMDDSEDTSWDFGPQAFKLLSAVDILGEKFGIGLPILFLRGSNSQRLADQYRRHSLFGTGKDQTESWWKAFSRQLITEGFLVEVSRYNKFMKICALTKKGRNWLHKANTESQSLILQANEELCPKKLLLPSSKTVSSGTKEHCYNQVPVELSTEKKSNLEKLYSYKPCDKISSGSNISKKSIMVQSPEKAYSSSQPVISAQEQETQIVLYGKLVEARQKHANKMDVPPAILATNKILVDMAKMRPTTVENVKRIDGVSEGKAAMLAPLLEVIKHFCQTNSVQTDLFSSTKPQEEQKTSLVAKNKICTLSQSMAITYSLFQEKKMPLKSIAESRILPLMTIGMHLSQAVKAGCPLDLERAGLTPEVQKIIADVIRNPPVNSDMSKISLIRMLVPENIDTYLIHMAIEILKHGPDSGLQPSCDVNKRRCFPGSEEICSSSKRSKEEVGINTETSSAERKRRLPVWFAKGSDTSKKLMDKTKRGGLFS

In general, IC50 refers to the midpoint of a concentration-inhibition curve. Read a high IC50 as a need for much substance. Take `CCc1c(N2CCN(C(=O)c3ncnc(C)c3O)CC2)c(=O)n2nc(-c3cc(C(F)(F)F)c4ncccc4c3)nc2n1CC(=O)Nc1ccc(C(F)(F)F)cc1Cl` [WO2025049746, Example 322]: the IC50 amounted to 96 nM in assay [1] and 72 nM in assay [2].
Turning to `CCc1c(N2CCN(C(=O)Cn3cncn3)CC2)c(=O)n2nc(C3=CCOCC3)nc2n1CC(=O)Nc1ccc(C(F)(F)F)cc1Cl` [WO2025049746, Example 61], the IC50 amounted to 66.7 nM in assay [1] and 125 nM in assay [2].
Turning to `CCc1c(N2CCN(C(=O)c3ncnc(C)c3O)CC2)c(=O)n2nc(-c3ccc4c(c3)OCC4)nc2n1CC(=O)Nc1c(Cl)cc(C(F)(F)F)c2c1CC2` [WO2025049746, Example 381], the IC50 amounted to 40 nM in assay [1] and 55 nM in assay [2].
As to `CCc1c(N2CCCN(C(=O)c3ncnc(C)c3O)CC2)c(=O)n2nc(C3=CCOCC3)nc2n1CC(=O)Nc1ccc(C(F)(F)F)cc1Cl` [WO2025049746, Example 340], the IC50 in assay [1] is 93 nM; in assay [2] it was 166 nM.
On the same counts, the results for `CCc1c(N2CCN(C(=O)c3ncnc(C)c3O)CC2)c(=O)n2nc(-c3cc(F)c4c(c3)CCO4)nc2n1CC(=O)Nc1ccc(C(F)(F)F)cc1Cl` [WO2025049746, Example 173] are 28 nM and 36 nM.
Take `CCc1c(N2CCN(C(=O)c3cncc4cc[nH]c34)CC2)c(=O)n2nc(C3=CCOCC3)nc2n1CC(=O)Nc1ccc(C(F)(F)F)cc1Cl` [WO2025049746, Example 47]: the IC50 in assay [1] worked out at 23.9 nM; in assay [2], 31.8 nM.
For `CCc1c(N2CCN(C(=O)c3ncnc(C)c3O)CC2)c(=O)n2nc(C3=CCOCC3)nc2n1CC(=O)Nc1ccc(OC(F)(F)Cl)cc1Cl` [WO2025049746, Example 355], the IC50 in assay [1] was found to be 39 nM; in assay [2], 49 nM.
Consider `CCc1c(N2CCN(C(=O)c3ncnc(C)c3O)CC2)c(=O)n2nc(C3=CCOCC3)nc2n1CC(=O)NC12CC(C3CC3)(C1)C2` [WO2025049746, Example 359], for which the IC50 turned out to be 148 nM in assay [1] and 232 nM in assay [2].
For the molecule `CCc1c(N2CCN(C(=O)c3ncnc(C)c3O)CC2)c(=O)n2nc(-c3cc(C)n4nccc4c3)nc2n1CC(=O)Nc1ccc(C(F)(F)F)cc1Cl` [WO2025049746, Example 240], the figures for the IC50 in assay [1] and in assay [2] were 27 nM and 24 nM, respectively.
With `CCc1c(N2CCN(C(=O)c3ncnc(C)c3O)CC2)c(=O)n2nc(N(C)C)nc2n1CC(=O)Nc1ccc(C(F)(F)F)c2c1CC2` [WO2025049746, Example 104], the IC50 in assay [1] came out at 22.8 nM; in assay [2], 26.9 nM.
`CCc1c(N2CCN(C(=O)c3nc4n(c(=O)c3O)CCOC4)CC2)c(=O)n2nc(N(C)C)nc2n1CC(=O)Nc1ccc(C(F)(F)F)c2c1CC2` [WO2025049746, Example 109]: the IC50 was 14.7 nM in assay [1] and 13.4 nM in assay [2].
In the case of `CCc1c(N2CCN(C(C)=O)CC2)c(=O)n2nc(-c3ccc4c(c3)OCO4)nc2n1CC(=O)Nc1ccc(C(F)(F)F)cc1Cl` [WO2025049746, Example 89], the IC50 in assay [1] amounted to 240 nM; in assay [2], 250 nM.
With `CCc1c(N2CCN(C(=O)c3ncnc(C)c3O)CC2)c(=O)n2nc(-c3cc4cn(C(F)F)nc4cc3F)nc2n1CC(=O)Nc1ccc(C(F)(F)F)cc1Cl` [WO2025049746, Example 291], the IC50 was 31 nM in assay [1] and 30 nM in assay [2].
On the same counts, the results for `CCc1c(N2CCN(C(=O)c3cc(C)c(O)cc3O)CC2)c(=O)n2nc(-c3ccc4c(c3)COC4)nc2n1CC(=O)Nc1ccc(C(F)(F)F)cc1Cl` [WO2025049746, Example 413] are 303 nM and 386 nM.
For `CCc1c(N2CCN(C(=O)c3ncnc(C)c3O)CC2)c(=O)n2nc(-c3ccc4c(c3)OCO4)nc2n1CC(=O)Nc1ccc(C(F)(F)F)c2c1CC2` [WO2025049746, Example 96], the IC50 in assay [1] came to 25.9 nM; in assay [2], 28.3 nM.
In the case of `CCc1c(N2CCN(C(=O)c3ncnc(C)c3O)CC2)c(=O)n2nc(-c3cc4n(n3)CCOC4)nc2n1CC(=O)Nc1ccc(C(F)(F)F)cc1Cl` [WO2025049746, Example 154], the figures for the IC50 in assay [1] and in assay [2] were 50 nM and 69 nM, respectively.
As for `CCc1c(N2CCN(C(=O)c3ncnc(C)c3O)CC2)c(=O)n2nc(-c3cc4c(cc3F)COC4)nc2n1CC(=O)Nc1ccc(C(F)(F)F)cc1Cl` [WO2025049746, Example 201], the 50% inhibitory concentration (IC50) in assay [1] is 21 nM; in assay [2], 25 nM.
Regarding `CCc1c(N2CCN(C(=O)c3ncnc(C)c3O)CC2)c(=O)n2nc(C3=CCOCC3)nc2n1CC(=O)NC12CC(C(F)(F)C(F)(F)F)(C1)C2` [WO2025049746, Example 69], the IC50 in assay [1] was found to be 141 nM; in assay [2], 235 nM.
On the same counts, the results for `CCc1c(N2CCN(C(=O)c3ncnc(C)c3O)CC2)c(=O)n2nc(-c3ccn4nc(OC(F)F)cc4c3F)nc2n1CC(=O)Nc1ccc(C(F)(F)F)cc1Cl` [WO2025049746, Example 334] are 32 nM and 30 nM.
On the same counts, the results for `CCc1c(N2CCN(C(=O)c3ncnc(C)c3O)CC2)c(=O)n2nc(-c3ccc4cn(C)nc4c3)nc2n1CC(=O)Nc1ccc(C(F)(F)F)cc1Cl` [WO2025049746, Example 177] are 30 nM and 31 nM.
Take `CCc1c(N2CCN(C(=O)c3ncnc(C)c3O)CC2)c(=O)n2nc(C3=CCOCC3)nc2n1CC(=O)Nc1c(Cl)cc(C(F)(F)F)c2scnc12` [WO2025049746, Example 373]: the IC50 was found to be 51 nM in assay [1] and 64 nM in assay [2].
On the same counts, the results for `CCc1c(N2CCN(C(=O)c3ncnc(C)c3O)CC2)c(=O)n2nc(-c3cccc4c3COCC4)nc2n1CC(=O)Nc1c(Cl)cc(C(F)(F)F)c2c1CC2` [WO2025049746, Example 390] are 52 nM and 84 nM.
Take `CCc1c(N2CCN(C(=O)c3ncnc(N4CC(F)(F)C4)c3O)CC2)c(=O)n2nc(-c3ccc4c(c3)COC4)nc2n1CC(=O)Nc1ccc(C(F)(F)F)cc1Cl` [WO2025049746, Example 412]: the IC50 in assay [1] was 29 nM; in assay [2], 37 nM.
Take `CCc1c(N2CCN(C(=O)c3ncnc(C)c3O)CC2)c(=O)n2nc(-c3ccc4c(c3)OC(F)(F)O4)nc2n1CC(=O)Nc1ccc(C(F)(F)F)cc1Cl` [WO2025049746, Example 179]: the IC50 in assay [1] came to 59 nM; in assay [2] it was 77 nM.
As to `CCc1c(N2CCN(C(=O)c3ncnc(C)c3O)CC2)c(=O)n2nc(C3=CCOCC3)nc2n1CC(=O)Nc1ccc(C(F)(F)F)cn1` [WO2025049746, Example 363], the values for the IC50 in assay [1] and in assay [2] were 81 nM and 155 nM, respectively.
`CCc1c(N2CCN(C(=O)c3ncnc(C)c3O)CC2)c(=O)n2nc(-c3ccc4c(c3)CN(C)C4(C)C)nc2n1CC(=O)Nc1ccc(C(F)(F)F)cc1Cl` [WO2025049746, Example 261]: the values for the IC50 in assay [1] and in assay [2] were 33 nM and 31 nM, respectively.
As for `CCc1c(-c2cc3n(n2)CC(=O)N(C)C3)c(=O)n2nc(C3=CCOCC3)nc2n1CC(=O)Nc1ccc(C(F)(F)F)cc1Cl` [WO2025049746, Example 338], the IC50 in assay [1] and in assay [2] was 29700 nM throughout.
As for `CCc1c(N2CCN(C(=O)c3ncnc(C)c3O)CC2)c(=O)n2nc(C3=CCOCC3)nc2n1CC(=O)Nc1ccc(C(F)(F)F)c2cccnc12` [WO2025049746, Example 360], the IC50 was determined as 1990 nM in assay [1] and 2140 nM in assay [2].
On the same counts, the results for `CCc1c(N2CCN(C(=O)c3ncnc(C)c3O)CC2)c(=O)n2nc(-c3cc(OC(F)F)n4nccc4c3F)nc2n1CC(=O)Nc1ccc(C(F)(F)F)cc1Cl` [WO2025049746, Example 317] are 93 nM and 75 nM.
For the molecule `CCc1c(N2CCN(C(=O)c3ncnc(C)c3O)CC2)c(=O)n2nc(-c3cccc4c3OCO4)nc2n1CC(=O)Nc1c(Cl)cc(C(F)(F)F)c2c1CC2` [WO2025049746, Example 385], the values for the IC50 in assay [1] and in assay [2] were 87 nM and 96 nM, respectively.
Regarding `CCc1c(N2CCN(C(=O)c3ncnc(C)c3O)CC2)c(=O)n2nc(N3CCC4(COC4)C3)nc2n1CC(=O)Nc1ccc(C(F)(F)F)cc1Cl` [WO2025049746, Example 29], the IC50 stood at 63.2 nM in assay [1] and 73.9 nM in assay [2].
For the molecule `CCc1c(N2CCN(C(=O)c3ncnc(C)c3O)CC2)c(=O)n2nc(-c3ccc4nc(C)cn4c3)nc2n1CC(=O)Nc1ccc(C(F)(F)F)cc1Cl` [WO2025049746, Example 255], the IC50 in assay [1] came to 24 nM; in assay [2] it was 23 nM.
For `CCc1c(N2CCN(C(=O)c3cccn4ccnc34)CC2)c(=O)n2nc(C3=CCOCC3)nc2n1CC(=O)Nc1ccc(C(F)(F)F)cc1Cl` [WO2025049746, Example 50], the IC50 is 79.4 nM in assay [1] and 156 nM in assay [2].
For `CCc1c(N2CCN(C(=O)c3ncnc(C)c3O)CC2)c(=O)n2nc(-c3ccc4c(c3)COC4)nc2n1CC(=O)Nc1cc(C2CC2)c(C(F)(F)F)cc1Cl` [WO2025049746, Example 418], the IC50 in assay [1] worked out at 57 nM; in assay [2], 66 nM.
`Cc1ncnc(C(=O)N2CCN(c3c4n(c5nc(-c6ccc7c(c6)COC7(C)C)nn5c3=O)[C@H](C(=O)Nc3ccc(C(F)(F)F)cc3Cl)C[C@@H]4C)CC2)c1O` [WO2025049746, Example 471]: the IC50 in assay [1] amounted to 1810 nM; in assay [2] it was 1790 nM.
Regarding `CCc1c(N2CCN(C(=O)c3ncnc(C)c3O)CC2)c(=O)n2nc(-c3ccc4nc(NCC(F)F)oc4c3)nc2n1CC(=O)Nc1ccc(C(F)(F)F)cc1Cl` [WO2025049746, Example 303], the values for the IC50 in assay [1] and in assay [2] were 45 nM and 42 nM, respectively.
The like results for `CCc1c(N2CCN(C(=O)c3ncnc(C)c3O)CC2)c(=O)n2nc(-c3ccc4c(c3)COC43CCC3)nc2n1CC(=O)Nc1ccc(C(F)(F)F)cc1Cl` [WO2025049746, Example 215] were, in that order, 46 nM and 48 nM.
The like results for `CCc1c(N2CCN(C(=O)c3ncnc(C)c3O)CC2)c(=O)n2nc(-c3cccc4c3COC(C)(C)C4)nc2n1CC(=O)Nc1ccc(C(F)(F)F)cc1Cl` [WO2025049746, Example 222] were, in that order, 45 nM and 40 nM.
Regarding `C=C(c1ccc(NC(=O)Cn2c(CC)c(N3CCN(C(=O)c4ncnc(C)c4O)CC3)c(=O)n3nc(-c4ccc5c(c4)COC5)nc23)c(Cl)c1)C(F)(F)F` [WO2025049746, Example 419], the half-maximal inhibitory concentration (IC50) in assay [1] stood at 39 nM; in assay [2], 54 nM.
